Experimental data taken from paper PMC6801819, “Exogenous Iron Increases Fasciocidal Activity and Hepatocellular Toxicity of the Synthetic Endoperoxides OZ78 and MT04” (International Journal of Molecular Sciences, 2019).

What was measured:
[1] = tested on: adult F. hepatica; test: In vitro/ex vivo adult worm viability assay; format: cell-based, Fasciola hepatica; conditions: for viability of adult F. hepatica (viability score): score 4 normal activity to 1 death; for viability of adult F. hepatica: 48 h
Description: The experiments were performed, as described previously. Adult F. hepatica were collected from bovine liver bile ducts obtained from the local slaughterhouse (Basel, Switzerland). After careful washing, a single adult worm was placed per well (6-well plate, Costar, MA, USA) containing 5.4 mL RPMI 1640 (Gibco, N.Y., USA), supplemented with 1% (v/v) antibiotics (50 µg/mL streptomycin and 50 U/mL penicillin), 1% (v/v) drug solution, […] Control worms were incubated in 1% (v/v) DMSO combined with iron or hemin. Experiments were conducted in triplicates and repeated once. Cultures were kept at 37 °C in an atmosphere of 5% CO2. The viabilities of treated and untreated worms were monitored at 0, 24, 48, and 72 h. Worms were examined by eye and/or using a dissecting microscope (20× lenses). The viability of adult flukes was scored using the following scale: 4: normal activity; movements were visible without a microscope, 3: reduced activities, 2: very weak activities detected only using microscopic magnification, and 1: death of worm (no movement observed for two min using a microscope).

[2] = tested on: HepG2 cells; test: Cellular reactive oxygen species (DCF-DA); format: cell-based, human; conditions: 24 h, HepG2; for cellular ROS content: drug + Fe2+; for increase of cellular ROS content, factor: drug alone (100 or 500 µM), no exogenous iron
Description: Stock solutions of the drugs tested were prepared in DMSO 100% (v/v). […] LC-MS measurements confirmed the stability of the compounds (data not shown). Treatments with AS, MT04, or OZ78 (100 or 500 µM) were performed either alone or in combination with 8% (v/v) hemin or FeCl2 solution for 24 h. The final iron concentration used was 122 µM (stock 1.5 mM) based on previous in vitro studies with F. hepatica. Dichlorodihydrofluorescein diacetate (DCF-DA) dissolved in DMSO was used to assess cellular formation of reactive oxygen species (ROS). HepG2 cells were seeded in a black-wall 96 well plate with a clear bottom as described above. Briefly, 30 min before treatment started, DCF-DA was added to the cells at a final concentration of 25 µM. DCF-DA was removed completely before the drugs were added. ROS was measured after 90 min and 24 h of drug exposure using a Tecan M200 Infinite Pro (excitation 485 nm, emission 535 nm).

[3] = tested on: HepG2 cells; test: Cellular ATP content (CellTiter-Glo); format: cell-based, human; conditions: 24 h, HepG2
Description: Stock solutions of the drugs tested were prepared in DMSO 100% (v/v).
In viability assays, HepG2 cells were treated with 0.1% Triton-X or 0.1% DMSO for positive or negative control, respectively.
To assess cellular ATP content, HepG2 cells were seeded in white-wall 96-well plates with a clear bottom (Nunc). One day after seeding, cells were treated with the respective drugs. […] Luminescence was measured using Tecan M200 Infinite Pro.

[4] = tested on: NMRI mice; test: Liver toxicity study in mice (plasma AST, aPhos, bilirubin, liver histology); format: in vivo, mouse; conditions: for Histopathologic observation: liver 8 hours; for plasma alkaline phosphatase (aPhos) / plasma aspartate aminotransferase (AST) / total serum bilirubin: single oral dose 200-800 mg/kg, 8 h post-treatment; for hepatic toxicity in vivo (overall): single oral doses up to 800 mg/kg
Description: All animal studies were carried out at the Swiss Tropical and Public Health Institute (Basel, Switzerland) and were approved by Swiss and cantonal authorities (permission: 2070). Female NMRI mice (age: 3–4 weeks, weight: ~20 g) were purchased from Harlan Laboratories (Horst, The Netherlands). Mice were kept in groups of 10 animals in macrolon-cages in environmentally controlled conditions (temperature: ~25 °C; humidity: ~70%; 12 h light/dark cycle) and acclimatized for one week. They had free access to water and rodent diet. For the in vivo studies AS, OZ78 or MT04 were suspended in 7% (v/v) Tween-80 and 3% (v/v) ethanol.
Since treatment of F. hepatica infections in animals is typically performed by a single oral dose, we performed a pilot study to find out the best time point to kill the mice at which we could observe hepatic toxicity after drug application. This time point was 8 h after drug application (data not shown).
In the final experiment, mice were treated with 200, 400, or 800 mg/kg AS, OZ78, or MT04 by oral gavage. Seven mice were left untreated for control measurements. According to the results of the pilot experiments, where we measured the highest increase in total serum bilirubin, AST or alkaline phosphatase 8 h post-treatment, mice were euthanized by CO2 8 h post-treatment, blood was collected and analyzed as described above. After blood collection, the liver was removed, carefully examined macroscopically, and gross lesions were recorded. Livers were then stored in formalin 10% (v/v) until fixation in 4% paraformaldehyde was performed. After embedding in paraffin, sections of 5 μm thickness were obtained, stained with hematoxylin and eosin, and examined using light microscopy.

[5] = 50 µg/mL drug + Fe2+ (iron), 72 h
[6] = 50 µg/mL drug + Fe2+ (iron), 24 h

| Structure (SMILES) | viability of adult F. hepatica (viability score) [1, 5] | viability of adult F. hepatica (viability score) ([1]; 50 µg/mL drug + hemin, 72 h) | viability of adult F. hepatica (viability score) ([1]; 50 µg/mL drug alone, 72 h) | cellular ROS content [2] | decrease in cellular ATP content as compared to DMSO ([3]; 100 µM + Fe2+ (iron)) | decrease in cellular ATP content as compared to DMSO ([3]; 100 µM + hemin) | decrease in cellular ATP content as compared to DMSO ([3]; 100 µM alone) | decrease in cellular ATP content as compared to DMSO ([3]; 500 µM + Fe2+ (iron)) | decrease in cellular ATP content as compared to DMSO ([3]; 500 µM + hemin) | decrease in cellular ATP content as compared to DMSO ([3]; 500 µM alone) | Histopathologic observation ([4]; 200 mg/kg oral, mouse 1) | Histopathologic observation ([4]; 200 mg/kg oral, mouse 2) | Histopathologic observation ([4]; 200 mg/kg oral, mouse 3) | Histopathologic observation ([4]; 400 mg/kg oral, mouse 1) | Histopathologic observation ([4]; 400 mg/kg oral, mouse 2) | Histopathologic observation ([4]; 400 mg/kg oral, mouse 3) | Histopathologic observation ([4]; 800 mg/kg oral, mouse 1) | Histopathologic observation ([4]; 800 mg/kg oral, mouse 2) | Histopathologic observation ([4]; 800 mg/kg oral, mouse 3) | liver histology, group summary ([4]; mice, 800 mg/kg oral, 8 h) | also measured |
| --- | --- | --- | --- | --- | --- | --- | --- | --- | --- | --- | --- | --- | --- | --- | --- | --- | --- | --- | --- | --- | --- |
| C[C@H]1[C@H](OC(=O)CCC(=O)O)O[C@@H]2O[C@@]3(C)CC[C@H]4[C@H](C)CC[C@@H]1[C@@]24OO3 [AS, artesunate, reference compound] | death of the worms | death of the worms | death of the worms | increased the cellular ROS content | 93% | 95% | 55% | complete depletion in cellular ATP | complete depletion in cellular ATP | complete depletion in cellular ATP | No lesions | No lesions | No lesions | No lesions | No lesions | Beginning nodular regeneration | Steatosis | Small area of confluent necrosis | No lesions | one mouse was without lesions, one with steatosis, and one with confluent necrosis | increase of cellular ROS content, factor [2]: 5; liver histology, group summary ([4]; mice, 200 mg/kg oral, 8 h): not associated with liver injury; time of highest values of AST, aPhos and total serum bilirubin (pilot study) ([4]; mice, single oral dose 400 mg/kg, sampled 2, 4, 8, 12, 24 h): 8 h; plasma alkaline phosphatase (aPhos) ([4]; mice): did not increase; plasma aspartate aminotransferase (AST) ([4]; mice): moderately increased with escalating doses; total serum bilirubin ([4]; mice): did not increase; liver lesions (pilot study) ([4]; mouse, in vivo, po, 400 mg/kg): no liver lesions were observed |
| O=C(O)CC1CCC2(CC1)OOC1(OO2)C2CC3CC(C2)CC1C3 (centres unmarked) [MT04] | 1.6 | death of the worms | 1.6 | not | 20% | 40% | not toxic | 65% | 65% | 20% | No lesions | No lesions | No lesions | Nuclear polymorphism | Nuclear polymorphism | No lesions | No lesions | Slight hydropic degeneration | Slight hydropic degeneration and nuclear polymorphism | Three out of four mice treated with 800 mg/kg MT04 presented hydropic degeneration | viability of adult F. hepatica (viability score) [1, 6]: 2.2; viability of adult F. hepatica (viability score) ([1]; 50 µg/mL drug + hemin, 24 h): 2.5; viability of adult F. hepatica (viability score) ([1]; 50 µg/mL drug alone, 24 h): not affected; Histopathologic observation ([4]; 200 mg/kg oral, mouse 4): Nuclear polymorphism; Histopathologic observation ([4]; 400 mg/kg oral, mouse 4): No lesions; Histopathologic observation ([4]; 800 mg/kg oral, mouse 4): Slight hydropic degeneration and nuclear polymorphism; AST values of single mice ([4]; mice, 200 mg/kg oral, 8 h): Two mice treated with 200 mg/kg MT04 had highly elevated AST values; liver histology, group summary ([4]; mice, 400 mg/kg oral, 8 h): no pathologic liver histology; plasma aspartate aminotransferase (AST) ([4]; mice): did not affect AST levels in a concentration-dependent fashion; hepatic toxicity in vivo (overall) ([4]; mice, 8 h): no relevant hepatic toxicity |
| O=C(O)C[C@H]1CC[C@]2(CC1)OOC1(O2)C2CC3CC(C2)CC1C3 (some centres unmarked) [OZ78] | 2 | 2 | 2 | increased the cellular ROS content | not toxic | 12% | not toxic | not enhanced by the addition of iron or hemin | not enhanced by the addition of iron or hemin | 14% | No lesions | Slight hydropic degeneration | Slight hydropic degeneration | Slight hydropic degeneration | Passive congestion | Nuclear polymorphism | Slight hydropic degeneration | No lesions | Passive congestion | two mice (out of four) with slight hydropic degeneration of hepatocytes | viability of adult F. hepatica (viability score) [1, 6]: 3; viability of adult F. hepatica ([1]; 50 µg/mL drug + Fe2+ (iron)): more efficient in impairing worm viability than OZ78 alone; viability of adult F. hepatica (viability score) ([1]; 50 µg/mL drug + hemin, 24 h): 3; viability of adult F. hepatica ([1]; 50 µg/mL drug + hemin): more efficient in impairing worm viability than OZ78 alone; viability of adult F. hepatica (viability score) ([1]; 50 µg/mL drug alone, 24 h): no effect on worm vitality; increase of cellular ROS content, factor [2]: 5; Histopathologic observation ([4]; 200 mg/kg oral, mouse 4): No lesions; Histopathologic observation ([4]; 400 mg/kg oral, mouse 4): Slight hydropic degeneration; Histopathologic observation ([4]; 800 mg/kg oral, mouse 4): Slight hydropic degeneration; liver histology, group summary ([4]; mice, 200 mg/kg oral, 8 h): two mice (out of four) with slight hydropic degeneration of hepatocytes; liver histology, group summary ([4]; mice, 400 mg/kg oral, 8 h): two mice (out of four) with slight hydropic degeneration of hepatocytes; plasma alkaline phosphatase (aPhos) ([4]; mice): in the normal range; plasma aspartate aminotransferase (AST) ([4]; mice): in the normal range; total serum bilirubin ([4]; mice): in the normal range; hepatic toxicity in vivo (overall) ([4]; mice, 8 h): no relevant hepatic toxicity |
